Data set [1] deals with SARS-CoV-2. Briefly: Antiviral activity against SARS Cov-2 USA_WA1/2020 infected in Vero E6 cells expressing ACE2 reporter assessed as inhibition of viral cytopathic effect measured after 68 hrs post infection by neutral red uptake assay. It counts as functional, organism-based. Conditions: Severe acute respiratory syndrome coronavirus 2, USA_WA1/2020, Vero C1008, 68 h. For orientation: Cytopathic effects are the visible damage that an infection or toxin causes in cultured cells.

Data set [2] concerns SARS-CoV-2. Briefly: Antiviral activity against SARS Cov-2 USA_WA1/2020 infected in Vero E6 cells expressing ACE2 reporter assessed as reduction in plaque formation at 0.21 to 50 uM and measured at 3 days post-infection by crystal violet staining based assay. Conditions: Severe acute respiratory syndrome coronavirus 2, USA_WA1/2020, Vero C1008, 72 h. It counts as functional, organism-based.

A short description of data set [3]: Protein binding in rat plasma assessed as unbound fraction. It counts as ADME, cell-free.
A short description of data set [4]: Protein binding in human plasma assessed as unbound fraction. The class given is ADME, cell-free.
A further data set deals with CYP2C9 (Homo sapiens, UniProt P11712). Briefly: Inhibition of CYP2C9 (unknown origin) at 10 uM relative to control. It counts as ADME.
Data set [5] relates to SARS-CoV-2. The data set is described as follows: Cytotoxicity against SARS CoV-2 infected Vero E6 cells assessed as reduction in cell viability. It counts as toxicity. Conditions: chlorocebus sabaeus, vero c1008.
Data set [6] in a line: Apparent passive permeability in MDCK-MDR1 cells. It counts as ADME, cell-based, Canis lupus familiaris. The note with it: dog.
The nature of data set [7]: Intrinsic clearance in human liver microsomes. The class given is ADME, Microsome. The note with it: read-out: CLH. (Microsomes from liver hold many membrane-bound enzymes, among them those of drug oxidation.)
The next data set concerns the target CYP2D6 (Homo sapiens, UniProt P10635). Briefly: Inhibition of CYP2D6 (unknown origin) at 10 uM relative to control. It counts as ADME.
Data set [8] is described as follows: Intrinsic clearance in rat liver microsomes. The class given is ADME, Microsome. Conditions: read-out: CLH.
The next data set concerns the target CYP3A4 (Homo sapiens, UniProt P08684). Briefly: Inhibition of CYP3A4 (unknown origin) at 10 uM relative to control. It counts as ADME.
In data set [9] the test system is Severe acute respiratory syndrome coronavirus 2. Conditions: dose microM <=100, time 30.0 min.
Data set [10] deals with Severe acute respiratory syndrome-related coronavirus. The note with it: 1, dose microM <=100, time 30.0 min.
Data set [11] in a line: Intrinsic clearance in human liver S9 fraction at 25 uM incubated for 1 hr in presence of NADPH by LC-MS/MS analysis. It counts as ADME, subcellular. The note with it: read-out: CLH.

Each structure is given as a SMILES string. Calls of active or inactive are those of the source. The rule behind the calls is not given here. Some results are limits rather than exact numbers.

CYP2C9, sequence (P11712 whole entry): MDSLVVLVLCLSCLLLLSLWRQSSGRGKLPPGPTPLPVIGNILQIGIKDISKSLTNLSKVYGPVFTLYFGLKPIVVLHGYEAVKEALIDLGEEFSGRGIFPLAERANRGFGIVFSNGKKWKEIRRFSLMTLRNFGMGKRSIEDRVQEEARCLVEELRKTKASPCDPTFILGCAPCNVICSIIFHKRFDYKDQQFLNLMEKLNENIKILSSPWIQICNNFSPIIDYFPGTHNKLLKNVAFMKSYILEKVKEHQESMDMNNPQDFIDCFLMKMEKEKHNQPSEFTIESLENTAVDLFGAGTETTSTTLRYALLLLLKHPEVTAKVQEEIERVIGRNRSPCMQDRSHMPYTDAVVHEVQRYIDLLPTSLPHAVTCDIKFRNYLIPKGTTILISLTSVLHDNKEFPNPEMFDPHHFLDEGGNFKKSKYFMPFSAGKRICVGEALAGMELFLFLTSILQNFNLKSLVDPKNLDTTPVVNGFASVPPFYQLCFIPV
CYP3A4, sequence (P08684 whole entry): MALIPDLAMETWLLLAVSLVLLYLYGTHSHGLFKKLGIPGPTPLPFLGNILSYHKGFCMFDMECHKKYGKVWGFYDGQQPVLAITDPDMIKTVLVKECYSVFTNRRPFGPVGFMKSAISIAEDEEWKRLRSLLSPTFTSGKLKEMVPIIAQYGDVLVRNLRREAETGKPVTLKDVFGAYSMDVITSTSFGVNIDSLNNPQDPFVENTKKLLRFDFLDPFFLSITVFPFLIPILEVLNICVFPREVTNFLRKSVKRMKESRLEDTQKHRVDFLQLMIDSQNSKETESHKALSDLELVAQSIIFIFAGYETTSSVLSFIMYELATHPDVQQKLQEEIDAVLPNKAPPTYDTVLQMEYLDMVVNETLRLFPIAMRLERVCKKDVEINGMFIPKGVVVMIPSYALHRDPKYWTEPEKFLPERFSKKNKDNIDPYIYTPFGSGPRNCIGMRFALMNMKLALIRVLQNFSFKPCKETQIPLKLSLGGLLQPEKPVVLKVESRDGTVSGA
CYP2D6, sequence (P10635 whole entry): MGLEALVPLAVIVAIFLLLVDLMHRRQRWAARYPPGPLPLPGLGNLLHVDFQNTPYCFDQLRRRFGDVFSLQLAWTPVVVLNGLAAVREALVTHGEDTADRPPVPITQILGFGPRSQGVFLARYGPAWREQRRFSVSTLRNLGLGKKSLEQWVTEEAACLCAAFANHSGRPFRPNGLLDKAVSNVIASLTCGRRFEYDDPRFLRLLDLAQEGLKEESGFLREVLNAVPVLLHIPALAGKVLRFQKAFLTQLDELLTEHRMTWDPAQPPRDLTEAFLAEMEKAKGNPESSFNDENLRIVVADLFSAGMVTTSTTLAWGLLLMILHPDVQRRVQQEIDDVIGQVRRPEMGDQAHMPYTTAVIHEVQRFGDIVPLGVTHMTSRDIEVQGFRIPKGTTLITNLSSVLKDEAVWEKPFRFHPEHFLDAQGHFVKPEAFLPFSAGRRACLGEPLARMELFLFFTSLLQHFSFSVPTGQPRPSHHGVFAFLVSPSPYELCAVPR

Take `O=C(Nc1ccc(N(Cc2ccsc2)C(=O)Cn2nnc3ccccc32)cc1)C1CC1`: the results for the EC50 in the data set with SARS-CoV-2 [1] and in the data set on SARS-CoV-2 [2] were 19.9 µM and 28.2 µM, respectively.

In the case of `O=C(Cn1nnc2ccccc21)N(Cc1cccc(Cl)c1)c1ccc(-c2c[nH]cn2)cc1`, the fraction unbound stood at 0.018 in data set [3] and 0.007 in [4]. The inhibition at 10 µM against CYP2C9 worked out at 100%; at CYP2D6 it was 87%; at CYP3A4, 100%. Also, in the data set on SARS-CoV-2 [5], the CC50 is more than 50 µM. Moreover, in data set [6], the Papp worked out at 46.1 ×10⁻⁶ cm/s. The CLint scaled is 141 mL/min/kg in [7] and 589 mL/min/kg in data set [8].

For the molecule `O=C(Cn1nnc2ccccc21)N(Cc1ccsc1)c1ccc(-c2cccnc2)cc1`, the EC50 worked out at 12.1 µM in the data set with SARS-CoV-2 [1] and 14.6 µM with SARS-CoV-2 [2]. The inhibition result in data set [9] and in data set [10] was “Active” throughout.

For the molecule `O=C(Cn1nnc2ccccc21)N(Cc1ccsc1)c1ccc(-c2c[nH]cn2)cc1`, the unbound share (fraction unbound) in [4] was 0.01. Besides, the half-maximal effective concentration (EC50) with SARS-CoV-2 [1] amounted to 1.74 µM; with SARS-CoV-2 [2], 1.75 µM.

As for `CCC(CC)COC(=O)[C@H](C)NP(=O)(OC[C@H]1O[C@@](C#N)(c2ccc3c(N)ncnn23)[C@H](O)[C@@H]1O)Oc1ccccc1` (single isomer, unassigned), the concentration giving a half-maximal response (EC50) in the data set with SARS-CoV-2 [1] worked out at 0.34 µM; with SARS-CoV-2 [2] it was 0.43 µM.

As to `O=C(Cn1nnc2ccccc21)N(Cc1cccc(Cl)c1)c1ccc(-c2cccnc2)cc1`, the EC50 in the data set with SARS-CoV-2 [1] is 7.61 µM; in the data set with SARS-CoV-2 [2], 11.1 µM.

On to `O=C(Cc1cncnc1)N(Cc1cccc(Cl)c1)c1ccc(-c2cn[nH]c2)cc1`, for which the fraction unbound in data set [3] amounted to 0.11; in data set [4] it was 0.018. The inhibition at 10 µM turned out to be 92% on CYP2C9, 26% against CYP2D6 and 88% against CYP3A4. In addition, the Papp in [6] is 66.7 ×10⁻⁶ cm/s. For the same molecule, the CLint scaled at 25 µM in data set [11] came to 145 mL/min/kg. Further, the CLint scaled in data set [7] was 620 mL/min/kg; in data set [8], 3300 mL/min/kg.

In the case of `O=C(Cn1nnc2ccccc21)N(Cc1cccc(Cl)c1)c1ccc(-c2cn[nH]c2)cc1`, the fraction unbound in data set [4] is 0.001. Also, the figures for the inhibition at 10 µM on CYP2C9, against CYP2D6 and at CYP3A4 were 99%, 63% and 96%, respectively. Besides, in data set [6], the Papp stood at 39.4 ×10⁻⁶ cm/s. In addition, the CLint scaled at 25 µM in data set [11] amounted to 436 mL/min/kg. The EC50 in the data set with SARS-CoV-2 [1] is 1.98 µM; in the data set on SARS-CoV-2 [2] it was 3.31 µM. In addition, the CLint scaled worked out at 2620 mL/min/kg in data set [7] and 5670 mL/min/kg in [8].

In the case of `O=C(Cc1cccnc1)N(Cc1cccc(Cl)c1)c1ccc(-c2cn[nH]c2)cc1`, the fraction unbound was found to be 0.035 in [3] and 0.004 in data set [4]. Besides, the figures for the inhibition at 10 µM at CYP2C9, at CYP2D6 and against CYP3A4 were 99%, 55% and 99%, respectively. Also, the Papp in data set [6] is 61.8 ×10⁻⁶ cm/s. Further, the CLint scaled at 25 µM in [11] came to 256 mL/min/kg. The CLint scaled amounted to 981 mL/min/kg in data set [7] and 3560 mL/min/kg in data set [8].

Turning to `O=C(Cn1nnc2ccccc21)N(Cc1cccc(Cl)c1)c1ccc(-c2cn[nH]c2)cn1`, the values for the EC50 in the data set with SARS-CoV-2 [1] and in the data set with SARS-CoV-2 [2] were 1.91 µM and 3.39 µM, respectively.

With `COc1cc(N(Cc2cccc(Cl)c2)C(=O)Cn2nnc3ccccc32)ccc1-c1cn[nH]c1`, the values for the EC50 in the data set with SARS-CoV-2 [1] and in the data set on SARS-CoV-2 [2] were 2.93 µM and 3.24 µM, respectively.

Consider `O=C(Cn1nnc2ccccc21)N(Cc1ccsc1)c1ccc(-c2ccccc2)cc1`, for which the inhibition entry in [9] and in data set [10] was “inactive” in each case.

Regarding `O=C(Cn1nnc2ccccc21)N(Cc1cccc(Cl)c1)c1ccc(-c2cn[nH]c2)nc1`, the EC50 is 3.81 µM in the data set with SARS-CoV-2 [1] and 4.65 µM with SARS-CoV-2 [2].

`COc1cc(-c2cn[nH]c2)ccc1N(Cc1cccc(Cl)c1)C(=O)Cn1nnc2ccccc21`: the EC50 was determined as 2.3 µM with SARS-CoV-2 [1] and 2.01 µM in the data set with SARS-CoV-2 [2].

For `O=C(Cn1nnc2ccccc21)N(Cc1cccc(Cl)c1)c1ccc(-c2ccc[nH]c2=O)cc1`, the EC50 came out at 8.77 µM with SARS-CoV-2 [1] and 16.7 µM in the data set on SARS-CoV-2 [2].

In general, EC50 refers to the concentration needed to bring the measured effect to its halfway point. What is called fraction unbound is free concentration divided by total concentration. Usually inhibition stands for how much of the control response was suppressed. Broadly, the CC50 is the concentration giving 50% cytotoxicity. For orientation: Papp means a coefficient for how fast a substance crosses the barrier.

These data come from ChEMBL document CHEMBL5042481, “Structure-Based Optimization of ML300-Derived, Noncovalent Inhibitors Targeting the Severe Acute Respiratory Syndrome Coronavirus 3CL Protease (SARS-CoV-2 3CLpro)” (J Med Chem, 2022).
